According to US20050220906A1, “Pharmaceutical composition for treating rheumatism and the preparation thereof” (priority 2002, published 2005):

How the values were obtained:
Type in all cases: in vivo, NIH mice
[1] = tested on: IL-1; assay: IL-1 of abdominal macrophages from dosed mice; conditions: 0.02 g/kg, 10 days
Protocol: (§1) 70 NIH mice, 18-22 g weight, half male and half female, were divided into 7 groups at random. All the groups were drenched with the correspondent medicines (fengshiping and the other medicines). The medicines were drenched once a day for 10 days. 24 hours after the last administration, all the mice were killed and sampled the macrophage and spleen cells from the abdominal carvity. The IL-1 and IL-6 in the samples were measured.
The macrophages in the abdominal carvity were sampled in the asepsis condition. Then the samples were washed by the Hank's liquor for 2 times and nonserum RPMI1640 liquor for 1 time. Then the clear samples were adjusted to the 4×10^6/ml cell suspension with 5% FCS-RPMI liquor. 1 ml of the suspension was added to the test tube and cultured at 37° C. for 1 hour. The unadherent cells were abandoned. Then the cultured liquor was added with 5% FCS-RPMI 1640 and LPS (10 ng/ml) to culture. The cells cultured in 5% CO2 at 37° C. for 72 hours. During the course, the cultured cells were freezed and thawed for several times. The final product was saved at 4° C. The C57 mice were sampled the thymus in the asepsis condition. […]
100 μl supernate separated from the frost thawing liquor and 100 μl cell suspension of thymus were added into the 96-hole flat bottom cell-culture batten. […] The cultured cells were collected with multihead cell-harvesting apparatus and measured the cpm value. […]

[2] = tested on: IL-6; assay: IL-6 of spleen cells from dosed mice (MH60 cells); conditions: 0.02 g/kg, 10 days
Protocol: as §1
The spleen cells were sampled in the asepsis condition. Then the samples were washed by the Hank's liquor for 2 times and nonserum RPMI1640 liquor for 1 time. Then the clear samples were adjusted to the 2×10^6/ml cell suspension with 5% FCS-RPMI liquor. 1 ml of the suspension was added to the round-bottom centrifuge tube. After adding the ConA (10 ng/ml), the samples were cultured in the 5% CO2 at 37° C. for 72 hour.
The MH60 cells, which grew depending on the IL-6 and were on the logarithmic growth stage, were adjusted to the 1×10^5/ml cell suspension with the 5% FC-RPMI1640.
The 96-hole flat bottom cell culturing batten was added with the MH60 cell suspension on the quantity of 100 μl/hole and the culturing supernate 25 μl/hole. Then the fluid in each hole was adjusted to the 200 μl with the 5% FCS-RPMI 1640. […] And then they were measured the OD at the wavelength 570 nm and 630 nm. […]

[3] = tested on: spleen cells; assay: Lymphocyte transformation induced by ConA; conditions: 0.02 g/kg
Protocol: 80 NIH mice, half male and half female, were divided into 8 groups randomly and drenched with the correspondent medicines once a day for 10 days. 24 hours after the last administration, all the mice were killed to sample the spleen cells aseptically. Then the samples were washed by the Hank's liquor for 2 times and nonserum RPMI1640 liquor for 1 time. Then the clear samples were adjusted to the 2×10^6/ml cell suspension with 5% FCS-RPMI liquor. The 96-hole flat bottom cell culturing batten was added with the cell suspension on the quantity of 100 μl/hole. Each sample was cultured with 3 copies. 2 holes were added in 2 ng ConA each as the stimulating reagent. The other hole was not added in the ConA and kept as the control hole. The batten was cultured in 5% CO2 at 37° C. for 72 hours. 14 hours before the end of the culture, each hole was added in 3H-TdR 0.1μ Ci. The cells were harvested by the multihead cell harvesting instrument and measured the cpm value. The average value was adopted as the sample's cpm value. The average value and the stimulating index of the different groups were compared directly. The stimulating index was calculated as following: […]

O=P1(N(CCCl)CCCl)NCCCO1 (stereo not shown) [cyclophosphane] was tested, and the IL-1 [1] was 44.5 ± 7.7 ng/mL, the IL-6 [2] was 49.6 ± 6.7 IU/ml and the Stimulating index [3] was 13.66 ± 2.28. The cpm [3] was 9922 ± 1145 cpm.
